Test system: K98450-129-R-PDC multicell spheroids, viability
Assay: Anticancer human tumor K98450-129-R-PDC patient-derived colon adenocarcinoma cell line growth inhibition [PI3K]
Details: for IC50: curve of first compound; for viability, T/C: stronger effect = lower value; active = viability on the fitted dose curve at most 10% of control; inactive = the rest
Excerpt: Combinatorial screen of targeted agents with the PI3K inhibitors inavolisib, alpelisib, duvelisib, and copanlisib in multi-cell type tumor spheroids
A high-throughput screen of multi-cell type tumor spheroids was designed to identify active combinations of targeted small molecules and PI3K pathway inhibitors. Complex spheroids include a stromal component modeled by human endothelial cells (HUVEC) and fibroblasts modeled by human mesenchymal stem cells (MSCs). The concentration ranges selected for each drug and investigational agent were based upon clinically achievable concentrations if the clinical Cmax of the agent was known.
Compounds. The drugs and investigational agents: inavolisib (NSC800729), alpelisib (NSC765974), duvelisib (NSC772469), copanlisib (NSC816437), ipatasertib (NSC767898), afuresertib (NSC778305), talazoparib (NSC767125), sapanisertib (NSC764658), selumetinib (NSC741078), tovorafenib (DAY101, NSC766906), vemurafenib (NSC761431), ravoxertinib (NSC781343), sotorasib (NSC818433), MRTX1133 (NSC 836407), abemaciclib (NSC 768073), palbociclib (NSC758247), venetoclax (NSC 766270), SY5609 (NSC837396), enzalutamide (NSC755605), and darolutamide (NSC825331), were obtained from the National Cancer Institute (NCI) Developmental Therapeutics Program Chemical Repository. The FDA-approved anticancer drug set is available from the NCI Developmental Therapeutics Program. […] The stock solutions were prepared in dimethyl sulfoxide (DMSO, Sigma-Aldrich, St. Louis, MO, cat. D2650) at 800-fold the tested concentration and stored at -70 degrees C prior to their use. All drugs and investigational agents were tested over a range starting from a high concentration at or near the clinical Cmax and decreasing in half-log increments. If the clinical Cmax for an agent had not been determined, the highest concentration tested was 10 microM.
Cell Culture. All cells were maintained in an incubator at 37 degrees C and 5% CO2 with 95% humidity. The PDC lines were cultured according to standard operating procedures established by the NCI PDMR (https://pdmr.cancer.gov/sops/default.htm). All PDCs were thawed and cultured in Matrigel-coated flasks prepared with a working solution of 1X Ham's F-12 nutrient mix, without supplementation (Invitrogen, Waltham, MA, cat. 11765054), 100 U/mL penicillin-streptomycin (Invitrogen, cat. 15140122), and 2.5% Matrigel (Corning Inc., Corning, NY, cat. 354248) for the first three passages. The 354836-022-R-J1-PDC, 475296-252-R-J1-PDC, and 997726-040-R-J2-PDC lines were cultured in 6A media, which includes advanced DMEM/F-12 (Thermo Fisher Scientific, cat. 12634028), 10 mM HEPES (Thermo Fisher Scientific, cat. 15630080), 1X GlutaMAX supplement (Thermo Fisher Scientific, cat. 35050061), 0.1 mg/mL primocin (InvivoGen, San Diego, CA, cat. ant-pm-2), 10% defined fetal bovine serum, heat inactivated (HyClone Laboratories Inc., Logan, UT, cat. SH30070.03HI), 50% L-WRN conditioned media (ATCC, cat. CRL-3276), 1.25 mM N-Acetyl-L-cysteine (Sigma-Aldrich, cat. A9165), 10 mM nicotinamide (Sigma-Aldrich, cat. N0636), 1X B-27 supplement (Thermo Fisher Scientific, cat. 17504044), 1X N-2 supplement (Thermo Fisher Scientific, cat. 17502048), and 10 microM Y-27632 dihydrochloride (Tocris Bioscience, Bristol, United Kingdom, cat. 1254). The 624824-186-R-J2-PDC line was cultured in 6C/Colon 1B media, which includes all 6A media components plus 50 ng/mL human EGF recombinant protein (Thermo Fisher Scientific, cat. PHG0311). […]

[1] = second compound 0.0316 µM, first compound 0.0316 µM
[2] = second compound 0.0316 µM, first compound 0.1 µM
[3] = second compound 0.0316 µM, first compound 0.316 µM
[4] = second compound 0.0316 µM, first compound 1 µM
[5] = second compound 0.0316 µM, first compound 3.16 µM
[6] = second compound 0.0316 µM, first compound 10 µM
[7] = second compound 0.1 µM, first compound 0.0316 µM
[8] = second compound 0.1 µM, first compound 0.1 µM
[9] = second compound 0.1 µM, first compound 0.316 µM
[10] = second compound 0.1 µM, first compound 1 µM
[11] = second compound 0.1 µM, first compound 3.16 µM
[12] = second compound 0.1 µM, first compound 10 µM
[13] = second compound 0.316 µM, first compound 0.0316 µM
[14] = second compound 0.316 µM, first compound 0.1 µM
[15] = second compound 0.316 µM, first compound 0.316 µM
[16] = second compound 0.316 µM, first compound 1 µM
[17] = second compound 0.316 µM, first compound 3.16 µM
[18] = second compound 0.316 µM, first compound 10 µM
[19] = second compound 1 µM, first compound 0.0316 µM
[20] = second compound 1 µM, first compound 0.1 µM
[21] = second compound 1 µM, first compound 0.316 µM
[22] = second compound 1 µM, first compound 1 µM
[23] = second compound 1 µM, first compound 3.16 µM
[24] = second compound 1 µM, first compound 10 µM
[25] = second compound 0.00316 µM, first compound 0.0316 µM
[26] = second compound 0.00316 µM, first compound 0.1 µM
[27] = second compound 0.00316 µM, first compound 0.316 µM
[28] = second compound 0.00316 µM, first compound 1 µM
[29] = second compound 0.00316 µM, first compound 3.16 µM
[30] = second compound 0.00316 µM, first compound 10 µM
[31] = second compound 0.01 µM, first compound 0.0316 µM
[32] = second compound 0.01 µM, first compound 0.1 µM
[33] = second compound 0.01 µM, first compound 0.316 µM
[34] = second compound 0.01 µM, first compound 1 µM
[35] = second compound 0.01 µM, first compound 3.16 µM
[36] = second compound 0.01 µM, first compound 10 µM
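Note: spheroids exposed to agents for seven days before read-out.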

C#Cc1c(F)ccc2cc(O)cc(-c3ncc4c(N5CC6CCC(C5)N6)nc(OCC56CCCN5CC(F)C6)nc4c3F)c12 (stereo unspecified) + CC(Nc1ncnc2nc[nH]c12)c1cc2cccc(Cl)c2c(=O)n1-c1ccccc1
inactive: viability, T/C [1] 120% | viability, T/C [2] 101% | viability, T/C [3] 99.1% | viability, T/C [4] 91.7% | viability, T/C [5] 90.9% | viability, T/C [6] 92.9% | viability, T/C [7] 116% | viability, T/C [8] 98.7% | viability, T/C [9] 96.4% | viability, T/C [10] 90.1% | viability, T/C [11] 98.2% | viability, T/C [12] 90.6% | viability, T/C [13] 110% | viability, T/C [14] 106% | viability, T/C [15] 91.1% | viability, T/C [16] 100% | viability, T/C [17] 101% | viability, T/C [18] 96.2% | viability, T/C [19] 98.9% | viability, T/C [20] 91.6% | viability, T/C [21] 104% | viability, T/C [22] 84.1% | viability, T/C [23] 115% | viability, T/C [24] 77.5% | viability, T/C (second compound 3.16 µM, first compound 0.0316 µM) 89.4% | viability, T/C (second compound 3.16 µM, first compound 0.1 µM) 89.9% | viability, T/C (second compound 3.16 µM, first compound 0.316 µM) 93.5% | viability, T/C (second compound 3.16 µM, first compound 1 µM) 85.1% | viability, T/C (second compound 3.16 µM, first compound 3.16 µM) 92% | viability, T/C (second compound 3.16 µM, first compound 10 µM) 87.4% | viability, T/C (second compound 10 µM, first compound 0.0316 µM) 87.5% | viability, T/C (second compound 10 µM, first compound 0.1 µM) 98.2% | viability, T/C (second compound 10 µM, first compound 0.316 µM) 88.2% | viability, T/C (second compound 10 µM, first compound 1 µM) 91.3% | viability, T/C (second compound 10 µM, first compound 3.16 µM) 99.9% | viability, T/C (second compound 10 µM, first compound 10 µM) 75.1%
> 10 µM: IC50 (second compound 0.0316 µM) | IC50 (second compound 0.1 µM) | IC50 (second compound 0.316 µM) | IC50 (second compound 1 µM) | IC50 (second compound 3.16 µM) | IC50 (second compound 10 µM)

C#Cc1c(F)ccc2cc(O)cc(-c3ncc4c(N5CC6CCC(C5)N6)nc(OCC56CCCN5CC(F)C6)nc4c3F)c12 (stereo unspecified) + COc1c(OCCCN2CCOCC2)ccc2c3n(c(=NC(=O)c4cnc(N)nc4)nc12)CCN3
> 10 µM: IC50 (second compound 0.00316 µM) | IC50 (second compound 0.01 µM) | IC50 (second compound 0.0316 µM) | IC50 (second compound 0.1 µM) | IC50 (second compound 0.316 µM)
2.44 µM: IC50 (second compound 1 µM)
inactive: viability, T/C [25] 114% | viability, T/C [26] 108% | viability, T/C [27] 110% | viability, T/C [28] 90% | viability, T/C [29] 89.1% | viability, T/C [30] 81.7% | viability, T/C [31] 122% | viability, T/C [32] 113% | viability, T/C [33] 99.9% | viability, T/C [34] 101% | viability, T/C [35] 100% | viability, T/C [36] 79.5% | viability, T/C [1] 91.6% | viability, T/C [2] 101% | viability, T/C [3] 76% | viability, T/C [4] 81.7% | viability, T/C [5] 85.6% | viability, T/C [6] 74.3% | viability, T/C [7] 64% | viability, T/C [8] 65.7% | viability, T/C [9] 80.8% | viability, T/C [10] 71% | viability, T/C [11] 75.8% | viability, T/C [12] 64.3% | viability, T/C [13] 60.8% | viability, T/C [14] 58% | viability, T/C [15] 67.3% | viability, T/C [16] 62.6% | viability, T/C [17] 49.1% | viability, T/C [18] 47.9% | viability, T/C [19] 54.6% | viability, T/C [20] 66% | viability, T/C [21] 53.9% | viability, T/C [22] 51.2% | viability, T/C [23] 50.9% | viability, T/C [24] 25.8%

C[C@@H](NC(=O)c1ncnc(N)c1Cl)c1ncc(C(=O)Nc2cc(C(F)(F)F)c(Cl)cn2)s1 + CC(Nc1ccc2c(c1)OCCn1cc(N3C(=O)OCC3C(F)F)nc1-2)C(N)=O
inactive: viability, T/C [25] 111% | viability, T/C [26] 109% | viability, T/C [27] 118% | viability, T/C [28] 114% | viability, T/C [29] 118% | viability, T/C [30] 111% | viability, T/C [31] 115% | viability, T/C [32] 108% | viability, T/C [33] 116% | viability, T/C [34] 115% | viability, T/C [35] 118% | viability, T/C [36] 116% | viability, T/C [1] 105% | viability, T/C [2] 102% | viability, T/C [3] 108% | viability, T/C [4] 121% | viability, T/C [5] 122% | viability, T/C [6] 104% | viability, T/C [7] 96.7% | viability, T/C [8] 105% | viability, T/C [9] 107% | viability, T/C [10] 110% | viability, T/C [11] 125% | viability, T/C [12] 107% | viability, T/C [13] 97% | viability, T/C [14] 109% | viability, T/C [15] 113% | viability, T/C [16] 111% | viability, T/C [17] 120% | viability, T/C [18] 101% | viability, T/C [19] 86% | viability, T/C [20] 94.4% | viability, T/C [21] 102% | viability, T/C [22] 104% | viability, T/C [23] 115% | viability, T/C [24] 90.7%
> 10 µM: IC50 (second compound 0.00316 µM) | IC50 (second compound 0.01 µM) | IC50 (second compound 0.0316 µM) | IC50 (second compound 0.1 µM) | IC50 (second compound 0.316 µM) | IC50 (second compound 1 µM)
